Data set [1] in a line: Hydrolytic stability in aqueous phosphate buffer. Format: physicochemical. The note with it: for remaining at 360 h / half-life: 0.02 m phosphate buffer; for remaining at 360 h: read-out: % Remaining After 15 Days; for half-life: 0.02 M phosphate. As for the experimental part: Stability tests were performed on the compound of formula (II) to determine the sweetener's resistance to hydrolysis under varying conditions.
The tests were performed using solutions of (II) in aqueous phosphate buffer, 0.02 M, at pH 3.5 and 6.9. The solutions were incubated at ~43° C. (110° F.), ~54° C. (130° F.), and ~66° C., (150° F.) for up to 32 days.
Samples from the test solutions were withdrawn at regular intervals and analyzed by reversed-phase high performance liquid chromatography for remaining intact (II), using the following conditions:
Column: 25 cm×0.4 cm I.D. stainless steel packed with Lichrosorb RP-18, 5μ particle size.
Mobile phase: Acetonitrile/0.01 M phosphate buffer (155/845 v/v), pH 6.
Detection: UV absorbance at 220 nm (~2200 Å). Results were quantified by comparison with standard solutions kept frozen during the tests. Peak heights were measured for replicate injections.
By use of the Arrhenius equation, [formula] where k is the specific reaction velocity, T is the absolute temperature (°K.), A is the activation energy constant, t is time, and R is the gas law constant, change in the rate of a first-order chemical reaction with temperature can be calculated. The half-life of (II) at ambient temperature and pH 6.9 is estimated to be 760 days (>2 yrs).

Data set [2] can be described thus: Amide bond cleavage by rat intestine homogenate. Format: in vitro ADME. Conditions: pH 7.0, 37° C., up to two hours, standardized to Aspartame/rat = 100. The source says: (§1) This aspartic acid has the same caloric value as sugar, on a per-gram basis. These aspartic acid amide sweeteners are therefore not non-nutritive, but, rather, low calorie. In addition, the other molecular fragment released as a result of amide cleavage is frequently a non-physiological amine. It was therefore considered appropriate to gauge the rate of amide cleavage of compound (II) by digestive enzymes in evaluating both the calorigenic and the toxicologic potential of compounds of this invention.
(§2) Assays were performed in the following manner:
(§3) Aliquots of four mM solutions of test compounds in 100 mM potassium phosphate buffer solution at pH 7.0 were incubated at 37° C. (98.6° F.) for up to two hours with a standardized amount of animal intestine homogenate containing digestive enzymes. At the end of the incubation period, the enzymes were inactivated by boiling and the extent of amide bond hydrolysis was quantified by measurement of free L-aspartic acid in the solution. This was done by incubating a sample of the test solution with enzymes and substrates that convert L-aspartate to L-malate with concomitant oxidation of a pyridine nucleotide having a characteristic absorbance at 340 nanometers. The decrease in optical density at this wavelength is proportional to the amount of L-aspartate generated by amide bond hydrolysis.

Data set [3] in a line: Amide bond cleavage by monkey intestine homogenate. Format: in vitro ADME. The note with it: pH 7.0, 37° C., up to two hours, standardized to Aspartame/rat = 100.
Text: as §1, §2, §3

For data set [4] the following is noted: cited from earlier work; for taste: in words; for sweetness intensity: L-aspartic acid alkyl amides, Mazur et al. 1970.
For data set [5] the following is noted: in words; cited from earlier work.
The conditions of data set [6]: in words; cited from earlier work. The source holds these as a separate data set.
The conditions of data set [7]: cited from earlier work; for half-life: pH 4.
A short description of data set [8]: Resistance to hydrolysis by digestive enzymes (statement in words). Format: in vitro ADME, animal.
Text: as §1, §2
as §3, with “hydrolysis. […]” for “hydrolysis.”

The nature of data set [9]: Taste evaluation (human taste panel, comparison with sucrose standards). The format is in vivo, Male subjects. Conditions: for taste / sweetness quality: in words. How it is done: The taste quality and sweetness intensity of the compounds of the present invention were determined by the following procedure.
Male subjects were selected at random from a group of about 20 persons who had previously been selected on the basis of proven tasting acuity, i.e., persons who could easily recognize the four basic tastes (sweet, sour, bitter and salty) and who were adept at quantifying their own physiological response numerically. The subjects were asked to taste and expectorate about 10 ml of a sample at about 22° C. containing dissolved test material. The subjects were then asked to compare the sweetness (and other taste qualities) of the test solution with four or five standard coded samples which contained increasing amounts of sucrose. Sweetness intensity of the unknown material was recorded by the subject making a mark on a coded closed linear scale at a point they considered equal in sweetness among the standards; interpolation between standards was encouraged. After completion of the panel, a four or five point (1-4 or 1-5, depending on the number of standards) numeric scale was superimposed on the coded linear scales to obtain numerical data; data were averaged and recorded to the nearest 0.25 unit. Equivalent sucrose sweetness was determined by referring to graphs of (w/v) sucrose concentration and standards versus a linear numeric scale.
Sweetness intensity was calculated by dividing the concentration (w/v) of perceived sweetness by the concentration (w/v) of test material required to produce that sweetness. Most taste comparisons were made in the range of 5-10% sucrose sweetness.
The five point scale with standards ranging from 1.37% (0.040 M) to 11.97% (0.35 M) sucrose usually sufficed to bracket the sweet intensity of a test sample. However, in the cases of beverage prototypes it was more meaningful to use prototype beverage solutions containing 2.5, 5.0, 10.0, 15.0 and 20.0% sucrose as standards. In all cases, evaluation of sweetness intensity in terms of sucrose equivalents was made with reference to graphs which related sucrose concentration and standard prototypes to the particular (arbitrary) scale units employed.
In tests in which taste quality was estimated, the subjects were asked to describe the initial taste and aftertaste in terms of percent sweet, sour, bitter, salty and "other", totalling 100%. In all tests, bottled spring water was used for rinsing between samples.

A short description of data set [10]: Aqueous solubility and calculated maximum effective sweetening power. The format is physicochemical. Conditions: for solubility / Calculated Maximum Effective Sweetening Power: approximate (~). How it is done: The solubility of compound (II) was determined in standard fashion. Water at pH 7 and 20° C. was used, except where indicated.
Because sweetness tends to plateau at higher concentrations of high intensity sweeteners, these calculations overestimate the actual sweetening power of the compounds of this invention.

Setting [11] is: pH 3.5, .02M Phosphate Buffer at 54° C.
Setting [12] is: pH 7, .02M Phosphate Buffer at 54° C.

Converted amounts (≈) assume the structure as drawn. “Also recorded” adds a separate entry of the source. Like-named read-outs stand apart in the source and are kept apart here. Residues, ends and D or L forms follow the SMILES beside them.

In the case of `CC(C)CCC(CO)NC(=O)[C@@H](N)CC(=O)O` (some centres unmarked), the values for the amount remaining at 360 h in data set [1] (setting [11]) and in [1] (setting [12]) were 88% and 72%, respectively.

As to `N[C@@H](CC(=O)O)C(=O)N[C@H](CO)Cc1ccccc1`, the “Relative rate of amide bond cleavage” value in data set [2] is reported as 19.

`CC(C)C[C@@H](CO)NC(=O)[C@@H](N)CC(=O)O`: the “Relative rate of amide bond cleavage” value in [2] is 11.

With `CC(C)CC[C@@H](CO)NC(=O)[C@@H](N)CC(=O)O`, the “Relative rate of amide bond cleavage” value in [2] is on record as 35; in data set [3], 103.

`CCCCCC(CO)NC(=O)[C@@H](N)CC(=O)O` (some centres unmarked): in data set [2], the “Relative rate of amide bond cleavage” value was 35.

Take `CC(C)CCCC(C)NC(=O)[C@@H](N)CC(=O)O` (some centres unmarked): the “Relative rate of amide bond cleavage” value in data set [2] came out at 38; in data set [3], 68.

Take `N[C@@H](CC(=O)O)C(=O)Nc1ccc2ccccc2c1`: the “Relative rate of amide bond cleavage” value in data set [2] is 4.

On to `CC(C)CC(C)NC(=O)[C@@H](N)CC(=O)O` (some centres unmarked) [1,3-dimethylbutyl], for which the taste entry in [4] is reported as “bitter”.

In the case of `CCC(C)CC(C)NC(=O)[C@@H](N)CC(=O)O` (some centres unmarked) [1,3-dimethylpentyl], in data set [4], the sweetness intensity is recorded as 1-2 X sucrose and the taste entry is “sweet”.

As to `CC(C)CCC(C)NC(=O)[C@@H](N)CC(=O)O` (some centres unmarked) [1,4-dimethylpentyl], in [4], the sweetness intensity is 50-100 X sucrose and the taste entry is listed as “sweet”.

In the case of `CC(C)CCCC(C)N` (centres unmarked) [1,5-dimethylhexylamine], in [5], the pharmacological activity entry is “vasopressor and myocardial stimulant activity”.

Regarding `CCCC(C)NC(=O)[C@@H](N)CC(=O)O` (some centres unmarked) [1-methylbutyl], the taste result in data set [4] is on record as “tasteless”.

Turning to `CCCCCCC(C)NC(=O)[C@@H](N)CC(=O)O` (some centres unmarked) [1-methylheptyl], in data set [4], the sweetness intensity is on record as 10 X sucrose and the taste result was “sweet”.

With `CCCCCC(C)NC(=O)[C@@H](N)CC(=O)O` (some centres unmarked) [1-methylhexyl], in [4], the sweetness intensity was 20-50 X sucrose and the taste result is “sweet”.

Take `CCCCC(C)NC(=O)[C@@H](N)CC(=O)O` (some centres unmarked) [1-methylpentyl]: in data set [4], the sweetness intensity was 30 X sucrose and the taste entry is given as “sweet”.

As for `CC(C)CCCNC(=O)[C@@H](N)CC(=O)O` [4-methylpentyl], the taste entry in [4] was “tasteless”.

For `COC(=O)[C@H](Cc1ccccc1)NC(=O)[C@@H](N)CC(=O)O` [Aspartame, L-aspartyl-L-phenylalanine methyl ester] (H-Asp-Phe-OMe), the taste result in [4] is given as “high quality sweetness; also recorded: free of unpleasant aftertaste”. In addition, the “Relative rate of amide bond cleavage” value in data set [2] is 100; in [3], 157. In addition, the “hydrolysis by gut enzymes” value in data set [6] was “readily converted to L-aspartic acids by enzymes in the gut”. In addition, the values for the half-life in data set [7] (40° C.) and in [7] (55° C.) were 68 days and 16 days, respectively. In data set [7] (in words), the “stability in aqueous media” value was “hydrolyzes rapidly in aqueous media to non-sweet compounds”. Also, the “% Remaining After 15 Days” value in [7] (pH 3.5, 54° C., comparable data from literature) is on record as 50%. For the same compound, in data set [7] (pH 7, 54° C., at 1 day, comparable data from literature), the “% Remaining” value is given as 0%.

Regarding `CCCC(CC)NC(=O)[C@@H](N)CC(=O)O` (some centres unmarked) [Compound 1-ethylbutyl], the taste entry in data set [4] is given as “bitter”.

`CC(C)CC[C@H](NC(=O)[C@@H](N)CC(=O)O)[C@H](C)O` [Compound II, (S)-3-amino-4-[(S,S)-1-(1-hydroxyethyl)-4-methyl-pentylamino]-4-oxo-butyric acid]: the half-life in data set [1] (pH 3.5, 54° C., pH start 3.5 (end 4.3)) was 57 days; in [1] (pH 3.5, 66° C., pH start 3.5 (end 4.8)), 17 days; in data set [1] (pH 6.9, 43° C., pH start 6.9 (end 6.8)) it was 148 days; in data set [1] (pH 6.9, 54° C., pH start 6.9 (end 6.09)), 64 days; in [1] (pH 6.9, 66° C., pH start 6.9 (end 7.5)), 22 days. The fraction remaining at 360 h in data set [1] (setting [11]) turned out to be 82%; in [1] (setting [12]), 86%. In data set [1] (in words), the “stability in aqueous media” value is “stable in moderately alkaline, neutral and moderately acidic aqueous media”. The “reaction order of hydrolysis” value in [1] (log (% (II) intact) versus time) is listed as “consistent with a reaction following first order kinetics”. Also, the “resistance to enzymatic hydrolysis” value in [8] is on record as “resistant to enzymatic hydrolysis”. For the same compound, the “Relative rate of amide bond cleavage” value in data set [2] and in data set [3] was 0 each time. Besides, the “sweetness intensity” value in data set [9] (Lemonade) came to 85 × sucrose; in data set [9] (Water), 60 × sucrose. In addition, the “sweetness relative to sucrose” value in data set [9] (at an 8% sucrose sweetness level) is given as “approximately 60 times”. The “taste / sweetness quality” value in [9] is “sweetness quality comparable to sucrose; also recorded: sweet in both aqueous solution and granular form”; in [9] (listed as (S,S,S) compound), “sweet”. Moreover, the solubility in data set [10] (Water, pH 7, 20° C.) is 30 to 40 mg/mL (≈ 115 to 154 mM); in data set [10] (lemonade, ditto mark), 30 to 40 mg/mL (≈ 115 to 154 mM). Besides, the “Calculated Maximum Effective Sweetening Power” value in [10] (Water) was 180-240 g % sucrose equivalent; in data set [10] (lemonade) it was 255-340 g % sucrose equivalent. Further, the solubility in water entry in data set [10] (in words) is “surprisingly soluble in water”.

Take `COc1ccc(CCC(=O)c2c(O)cc(O[C@@H]3O[C@H](CO)[C@@H](O)[C@H](O)[C@H]3O[C@@H]3O[C@@H](C)[C@H](O)[C@@H](O)[C@H]3O)cc2O)cc1O` [Neohesperidin dihydrochalcone]: in data set [4], the taste entry is “the sweetness is slow to develop and it has a licorice-like aftertaste”.

For the compound `CCCCCCCNC(=O)[C@@H](N)CC(=O)O` [heptyl], in data set [4], the sweetness intensity is 1-2 X sucrose and the taste result was “sweet”.

Turning to `CCCCCCNC(=O)[C@@H](N)CC(=O)O` [hexyl], in [4], the sweetness intensity is listed as 1-2 X sucrose and the taste entry is on record as “sweet”.

With `O=C1NS(=O)(=O)c2ccccc21` [saccharin], the taste result in [4] is given as “bitter aftertaste”.

The amount remaining is the share of the starting amount still present when the sample was taken. A word on the half-life: it is the time needed for the level to fall by half in the phase considered. The term solubility denotes the dissolved amount per volume that the medium holds.

The values above are taken from patent US4423029A, “(S)-3-Amino-4-[(S,S)-1-(1-hydroxyethyl)alkyl amino]-4-oxo-butyric acid compounds suitable as non-nutritive sweetners” (The Procter & Gamble Company, priority 1981, dated 1983).
